# In patent US12030908B2, “Antimicrobial compounds, compositions, and uses thereof” (Lakewood Amedex, Inc., priority 2017, dated 2024):
# Read-outs that look alike come from different tables or passages of the source.
# Key:
# [1] = tested on: Escherichia coli (strain CFT073, TPPS 1041); assay: Initial urinary tract infection model in BALB/c mice, transurethral treatment (Example 9); type: in vivo; conditions: 50 mg/kg transurethral 24 hr post-challenge; 60 minutes post-treatment
# Source text: Female BALB/c mice (20-22 g) ordered from Envigo are acclimated to housing conditions and handled in accordance with Animal Use Protocol (AUP) number TP-08. Animals are fed irradiated Teklad Global 29 18 Rodent Diet and water ad libitum. Mice are housed 6/cage in static cages with irradiated ⅛″ Teklad corn cobbedding 7902 inside bioBubble® clean rooms that provide H.E.P.A filtered air into the bubble environment at 100 complete air changes per hour. The environment is controlled to a temperature range of 74°±4° F. and a humidity range of 30-70%. All procedures carried out in this experiment are conducted in compliance with the laws, regulations, and guidelines of the National Institutes of Health and with the approval of the TransPharm Preclinical Solutions Animal Care and Use Committee.
# A clinical isolate of Escherichia coli (strain CFT073, TPPS 1041) are procured from the University of Michigan.
# The organism is grown overnight at 37° C. in ambient atmosphere on trypticase soy agar plates supplemented with 5% sheep blood cells. The culture is aseptically swabbed and transferred to tubes of trypticase soy broth. The optical density is determined at 600 nm. The culture is diluted to provide an inoculum of approximately 7.5 log10 CFU per mouse in a volume of 30 μL. Instillation of the bacterial challenge constituted time 0 hour for the study. Inoculum counts are estimated before inoculation by optical density and confirmed after inoculation by dilution and back counts.
# One hour prior to bacterial challenge, water is removed from animal cages. […]
# The primary endpoint used to assess progress of the infection is mean bacterial burden per gram of urinary bladder tissue. […] Colony forming units (CFU) are enumerated and the total bacterial burden per gram of urinary bladder tissue homogenate is calculated.
# The geometric mean CFU, along with standard error of the mean (SEM), are calculated using Microsoft Excel and bar charts are prepared for the data using GraphPad Prism v. […]
# pKa measurement = type: physicochemical; conditions: read-out: pKa
# P. aeruginosa = assay: Broth microdilution MIC at incremental pH, P. aeruginosa; type: cell-based; conditions: Pseudomonas aeruginosa, read-out: MIC
# Experimental: (§1) MIC testing is conducted using the broth (Mueller Hinton Broth) microdilution procedures relevant to each organism group as established by the Clinical and Laboratory Standards Institute (CLSI; 3-7). MIC plates are prepared in accordance with CLSI (3-7). To prepare the test plates, automated liquid handlers are used to conduct serial dilutions and liquid transfers. Automated liquid handlers utilized in this study include the Multidrop 384 (Labsystems, Helsinki, Finland) and the Biomek 2000 (Beckman Coulter, Fullerton CA). The solution is diluted to desired pH using 1 M Citric Acid or 1 M NaOH buffer. A standardized inoculum of each test organism is prepared per CLSI methods (3, 5-7) to equal a 0.5 McFarland standard in the appropriate media followed by an additional 1:20 dilution (1:10 for anaerobes).
# (§2) The plates are then inoculated with 10 μL of the diluted 0.5 McFarland suspension using the Biomek 2000 from low to high drug concentration, resulting in a final concentration of approximately 5×10^5 CFU/mL per well. An un-inoculated plate is incubated for the purpose of assessing solubility of the drug in the test media. The plates are stacked 3 to 4 high, covered with a sterile lid on the top plate, and incubated for 18 to 24 hours according to CLSI. The MIC is recorded as the lowest concentration of respective compound that inhibited visible growth of the organism.
# E. coli = assay: Broth microdilution MIC at incremental pH, E. coli; type: cell-based; conditions: Escherichia coli, read-out: MIC
# Experimental: as §1, §2
# [2] = tested on: methicillin susceptible S. aureus (ATCC 29213); assay: Bacterial cytological profiling at pH 4, 5.5, 7 (Example 7), S. aureus; type: cell-based; conditions: 125 mg/mL
# Experimental: (§3) This bacterial cytological profiling (BCP) investigation uses methods and materials described previously by Nonejuie, P., Burkart, M., Poglianoa, K., Pogiano, J. (2013). Bacterial cytological profiling rapidly identifies the cellular pathways targeted by antibacterial molecules. Proc. Natl. Acad. Sci. U.S.A. 110(40):16169-16174. doi: 10.1073/pnas.1311066110.
# (§4) For viable cell counts, cells are grown to OD600≈0.4 and diluted 1:1 into buffered or unbuffered media containing various compound concentrations. Samples are then collected and serially diluted (1:10) on a 96 well plate. Five microliters from each well are spotted on LB plates, incubated at 30° C., and viable cells are counted the next day.
# (§5) Samples are collected at 10, 30, 120, and 240 min of exposure for viable cell count and imaging. For imaging, E. coli and S. aureus 200 μL of treated cells per time point are stained with 0.8 μg/mL FM4-64, 1.5 μg/mL DAPI, and 0.4 μM SYTOXGreen (Molecular Probes/Invitrogen). P. aeruginosa samples are stained 0.4 μM SYTOX Green, 28 μg/mL DAPI, and 1 μg/mL FM 4-64. Cells are transferred to an agarose pad (20% LB, 1% agarose) for imaging.
# (§6) For Nu-3 and Nu-8 stocks (at pH 4, 5.5 and 7), stock concentration is 500 mg/mL. For pH 4, the stocks are prepared by dissolving Nu-3 in 25 mM citrate buffer and Nu-8 in 350 mM citric acid. […]
# [3] = tested on: wild type E. coli (ATCC 25922); assay: Bacterial cytological profiling at pH 4, 5.5, 7 (Example 7), E. coli; type: cell-based; conditions: pH 5.5 and 7
# Experimental: as §3, §4, §5, §6
Molecule,average bladder CFU burden [1] [log10 CFU],pKa (pKa measurement),MIC (P. aeruginosa; pH 1) [mg/mL],MIC (P. aeruginosa; pH 3) [mg/mL],MIC (P. aeruginosa; pH 5) [mg/mL],MIC (P. aeruginosa; pH 7) [mg/mL],MIC (E. coli; pH 1) [mg/mL],MIC (E. coli; pH 3) [mg/mL],MIC (E. coli; pH 5) [mg/mL],MIC (E. coli; pH 7) [mg/mL],cell growth [2],"effect on cell permeability, cell viability and growth [3]"
gentamicin [reference compound],6.1,–,–,–,–,–,–,–,–,–,–,–
CCCCOP(=O)(O)OC[C@H]1O[C@@H](n2cc(C)c(=O)[nH]c2=O)C[C@H]1OP(=O)(O)OCCCC [Nu-4],–,2.3,–,–,–,–,–,–,–,–,–,–
CCCCOP(=O)(O)OCCOCCOP(=O)(O)OCCCC [Nu-5],–,2.28,6.25,100,100,100,6.25,100,100,100,–,–
CCCCOP(=O)(O)OC[C@H]1O[C@@H](n2cc(C)c(=O)[nH]c2=O)C[C@@H]1OP(=O)(O)OCCCC [Nu-3],–,–,12.5,> 100,> 100,> 100,12.5,> 100,> 100,> 100,slight reduction in cell growth resembling that at pH 4 alone,ineffective
COC1[C@@H](OP(=O)(O)OCCCCO)[C@@H](COP(=O)(O)OCCCCO)O[C@H]1n1ccc(=O)[nH]c1=O (stereo partly shown) [Nu-2],–,2.3,–,–,–,–,–,–,–,–,–,–
